Test results from ChEMBL document CHEMBL5143589, “Drugging the Next Undruggable KRAS Allele-Gly12Asp” (J Med Chem, 2022).

How the values were obtained:
[1] = Inhibition of KRAS […] mutant (unknown origin) by HTRF assay; parameters: species or system Homo sapiens
[2] = Binding affinity to KRAS […] mutant (unknown origin) assessed as dissociation constant; parameters: species or system Homo sapiens
[3] = target: T1, GTPase KRas (Homo sapiens, UniProt P01116); experiment: Binding affinity to KRAS (unknown origin) assessed as inhibition constant
Target sequence in this assay (P01116 whole entry): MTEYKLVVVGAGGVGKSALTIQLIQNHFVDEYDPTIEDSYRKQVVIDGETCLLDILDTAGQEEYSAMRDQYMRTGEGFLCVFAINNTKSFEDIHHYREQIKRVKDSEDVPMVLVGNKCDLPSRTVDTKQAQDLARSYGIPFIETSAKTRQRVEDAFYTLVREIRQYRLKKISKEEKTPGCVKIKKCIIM

[4] = target: T1, GTPase KRas
Target sequence in this assay (P01116 whole entry, looked up): as the sequence (P01116 whole entry) above
Description: Binding affinity to KRAS (unknown origin) assessed as inactivation constant

[5] = Inhibition of ERK phosphorylation in human AGS cells; type: cell-based
[6] = system: MKN-1; experiment: Antiproliferative activity against human MKN-1 cells assessed as reduction of cell viability; type: functional, cell-based
[7] = system: AGS; experiment: Antiproliferative activity against human AGS cells assessed as reduction of cell viability; type: functional, cell-based

## Oc1cc(-c2ncc3c(N4CC5CCC(C4)N5)nc(OC[C@@]45CCCN4C[C@H](F)C5)nc3c2F)c2ccccc2c1
[1]
  IC50: ≤ 2 nM

## CN1CCC[C@H]1COc1nc(N2CCNCC2)c2cnc(-c3cccc4cccc(Cl)c34)c(F)c2n1
[2]
  Kd: 3500 nM

## C=CC(=O)N1CCN(c2ncnc3c(F)c(-c4c(O)cccc4F)c(Cl)cc23)CC1
[3]
  Ki: 31 µM
[4]
  Kinact: 0.03 s⁻¹

## CN1CCC[C@H]1COc1nc(N2CC3CCC(C2)N3)c2cnc(-c3cc(O)cc4ccccc34)c(F)c2n1
[1]
  IC50: 5 nM
[2]
  Kd: 0.8 nM

## C#Cc1c(F)ccc2cc(O)cc(-c3ncc4c(N5CC6CCC(C5)N6)nc(OC[C@@]56CCCN5C[C@H](F)C6)nc4c3F)c12 [MRTX-1133]
[5]
  IC50: 2 nM
[6]
  IC50: > 3000 nM
[2]
  Kd: 0.0002 nM
[7]
  IC50: 6 nM

## C#Cc1c(F)ccc2cccc(-c3ncc4c(N5CC6CCC(C5)N6)nc(OCC56CCCN5CCC6)nc4c3F)c12
[1]
  IC50: ≤ 2 nM
